Measurements taken from patent EP4603105A1, “PHARMACEUTICAL COMPOSITION CONTAINING CYCLIC COMPOUND HAVING SELECTIVE KRAS INHIBITORY EFFECT AGAINST HRAS AND NRAS” (CHUGAI SEIYAKU KABUSHIKI KAISHA, priority 2022, dated 2024).
*1 amine or outer side, *2 acyl side, *3 side chain or, on linkers, in order; H or OH if unused. Where a SMILES comes first, the peptide text is derived from it. Bridges are numbered along the chain shown (N, C = ends). [ ]: non-standard residue; d: D form. hPhe(3-Cl-4-CF3) = N[C@@H](CCc1ccc(C(F)(F)F)c(Cl)c1)C(=O)O; X8 = CCCN([C@@H](COCCC(C)C)C(=O)[*:2])[*:1]; NMeGly(cPent) = CN[C@H](C(=O)O)C1CCCC1; NMeD = CN[C@@H](CC(=O)O)C(=O)O; NMeL = CN[C@@H](CC(C)C)C(=O)O; NMeA = CN[C@@H](C)C(=O)O; Aze = O=C(O)[C@@H]1CCN1; Ac4c = NC1(C(=O)O)CCC1; Sar = CNCC(=O)O

Legend:
[1] = target: HRAS wild-type protein (Homo sapiens, UniProt P01112); test: Binding to HRAS by surface plasmon resonance (SPR), KD and KD ratio to KRAS
HRAS wild-type protein, sequence (P01112 whole entry): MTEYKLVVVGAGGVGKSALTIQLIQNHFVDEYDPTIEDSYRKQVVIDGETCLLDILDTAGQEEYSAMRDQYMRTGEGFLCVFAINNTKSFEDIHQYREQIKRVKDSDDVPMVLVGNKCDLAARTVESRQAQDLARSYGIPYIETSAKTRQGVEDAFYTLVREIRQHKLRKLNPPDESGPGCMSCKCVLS
Method in brief: (§1)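 SPR, 30°C: Avi-biotin RAS·GDP captured via Biotin CAPture (~100–300 RU); running buffer HBS pH 7.4, 1 mM DTT, 10 mM MgCl2, 0.01% Tween 20, 10 µM GDP, 4% DMSO. Single-cycle kinetics, 100 µL/min, 75 s injections; 1:1 model → KD.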

[2] = system: human lung cancer strain NCI-H441; format: cell-based
Method in brief: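 Proliferation was scored by […] measured after the reagent was added to cultures kept at 37°C in 5% carbon dioxide.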

[3] = target: GDP-bound NRAS wild-type protein (Homo sapiens, UniProt P01111); test: Binding to NRAS by surface plasmon resonance (SPR), KD and KD ratio to KRAS
GDP-bound NRAS wild-type protein, sequence (P01111 whole entry): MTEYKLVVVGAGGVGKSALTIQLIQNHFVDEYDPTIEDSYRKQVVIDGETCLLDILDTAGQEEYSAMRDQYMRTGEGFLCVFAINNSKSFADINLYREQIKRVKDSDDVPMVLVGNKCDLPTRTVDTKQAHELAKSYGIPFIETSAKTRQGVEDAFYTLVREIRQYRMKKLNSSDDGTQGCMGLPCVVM
Method in brief: as §1

[4] = ratio of KD for HRAS wild-type protein to KD for KRAS
[5] = ratio of KD for GDP-bound NRAS wild-type protein to KD for KRAS
[6] = ratio of the KD value with respect to HRAS wild-type protein to the KD value with respect to KRAS
[7] = ratio of the KD value with respect to GDP-bound NRAS wild-type protein to the KD value with respect to KRAS
[8] = ratio of KD value for HRAS wild-type protein to KD value for KRAS (SPR)
[9] = ratio of KD value for GDP-bound NRAS wild-type protein to KD value for KRAS (SPR)

Row | SMILES | IC50 [2] [nM] | HRAS /KRAS [1, 4] | NRAS /KRAS [3, 5] | HRAS /KRAS [1, 6] | NRAS /KRAS [3, 7] | HRAS /KRAS [1, 8] | NRAS /KRAS [3, 9]
1 | CCC[C@H]1C(=O)N[C@@H](C2CCCC2)C(=O)N(C)CC(=O)N(C)[C@H]2C/C=C\CCN(C2=O)[C@@H](Cc2ccc(C(F)(F)F)cc2)C(=O)N(C)CC(=O)N[C@@H](CCc2ccc(C(F)(F)F)c(Cl)c2)C(=O)N2C[C@H](OCC)C[C@H]2C(=O)NC2(CC(C)(C)C2)C(=O)N(C)[C@@H](CC(C)(C)C)C(=O)N(C)[C@H](C(=O)N(C)C)CC(=O)N1C [PP2971] | 5.1 | A (a compound having 10 or more and less than 20 is denoted as A) | A (a compound having 10 or more and less than 20 is denoted as A) |  |  |  | 
2 | CCO[C@@H]1C[C@H]2C(=O)NC3(CC(C)(C)C3)C(=O)N(C)[C@@H](C(CC)CC)C(=O)N(C)[C@H](CC)CC(=O)N(C)[C@@H](CC3CC3)C(=O)N[C@@H]([C@@H](C)CC)C(=O)N(C)CC(=O)N(C)[C@H]3C/C=C\CCN(C3=O)[C@@H](Cc3ccc(C(F)(F)F)cc3)C(=O)N(C)CC(=O)N[C@@H](CCc3cc(F)c(C(F)(F)F)c(F)c3)C(=O)N2C1 [PP1628] | 150 |  |  |  |  | A (a compound having 10 or more and less than 20 is denoted as A) | A (a compound having 10 or more and less than 20 is denoted as A)
3 | CCCN1C(=O)[C@H](C2CCCC2)N(C)C(=O)C2(CCC2)NC(=O)[C@@H]2C[C@@H](OCC)CN2C(=O)[C@H](CCc2cc(F)c(C(F)(F)F)c(F)c2)NC(=O)CN(C)C(=O)[C@H](Cc2ccc(C(F)(F)F)cc2)N2CCCCC[C@@H](C2=O)N(C)C(=O)CN(C)C(=O)[C@H]([C@@H](C)CC)NC(=O)[C@H](CC(C)C)N(C)C(=O)C[C@H]1C(=O)N1CCOCC1 [PP0639] | 631 |  |  | B (a compound having 3 or more and less than 10 is denoted as B) | B (a compound having 3 or more and less than 10 is denoted as B) |  | 
4 | CCO[C@@H]1C[C@H]2C(=O)NC3(CCC3)C(=O)N(C)[C@@H](C3CCCC3)C(=O)N(C)[C@H](C(=O)N(C)CC)CC(=O)N(C)[C@@H](C3CCC3)C(=O)N[C@@H]([C@@H](C)CC)C(=O)N(C)CC(=O)N(C)[C@H]3C/C=C\CCN(C3=O)[C@@H](Cc3ccc(C(F)(F)F)cc3)C(=O)N(C)CC(=O)N[C@@H](CCc3cc(F)c(C(F)(F)F)c(F)c3)C(=O)N2C1 [PP1996] | 15.5 |  |  | B (a compound having 3 or more and less than 10 is denoted as B) | A (a compound having 10 or more and less than 20 is denoted as A) |  | 
5 | CCCN1C(=O)[C@@H]2CCN2C(=O)[C@H](C)N(C)C(=O)[C@H]([C@@H](C)CC)NC(=O)[C@H](CC(C)C)N(C)C(=O)C[C@@H](C(=O)N(C)C)N(C)C(=O)[C@H](C2CCCC2)N(C)C(=O)C2(CCC2)NC(=O)[C@@H]2CCCN2C(=O)[C@H](CCc2ccc(C(F)(F)F)c(Cl)c2)NC(=O)CN(C)C(=O)[C@@H]1COCCC(C)C [PP1820] ([NMeL]I[NMeA][Aze][X8][Sar][hPhe(3-Cl-4-CF3)]P[Ac4c][NMeGly(cPent)][NMeD]-NMe2; lactam N-11) | 40.7 |  |  |  |  | C (A compound having a KD ratio of 0.1 or more and less than 3 is denoted as C) | C (A compound having a KD ratio of 0.1 or more and less than 3 is denoted as C)

More lines, in order of falling IC50 [2], values ahead:

Row | IC50 [2] [nM] | SMILES | HRAS /KRAS [1, 4] | NRAS /KRAS [3, 5] | HRAS /KRAS [1, 6] | NRAS /KRAS [3, 7] | HRAS /KRAS [1, 8] | NRAS /KRAS [3, 9]
6 | 13.8 | CCC[C@H]1C(=O)N[C@@H](C2CCCC2)C(=O)N(C)CC(=O)N(C)[C@H]2C/C=C\CCN(C2=O)[C@@H](Cc2ccc(C)cc2)C(=O)N(C)CC(=O)N[C@@H](CCc2ccc(C(F)(F)F)c(Cl)c2)C(=O)N2C[C@H](OCC)C[C@H]2C(=O)NC2(CC(C)(C)C2)C(=O)N(C)[C@@H](C2CCCC2)C(=O)N(C)[C@H](C(=O)N(C)C)CC(=O)N1C [PP2198] |  |  | A (a compound having 10 or more and less than 20 is denoted as A) | A (a compound having 10 or more and less than 20 is denoted as A) |  | 
7 | 12.8 | CC[C@H](C)[C@@H]1NC(=O)[C@H](CC(C)C)N(C)C(=O)C[C@@H](C(=O)N2CCOCC2)N(C)C(=O)[C@H](C2CCCC2)N(C)C(=O)C2(CCC2)NC(=O)[C@@H]2[C@H]3C[C@H]3CN2C(=O)[C@H](CCc2cc(F)c(C(F)(F)F)c(F)c2)NC(=O)CN(C)C(=O)[C@H](Cc2ccc(C(F)(F)F)cc2)N2CCCC[C@@H](C2=O)N(C)C(=O)CN(C)C1=O [PP0810] | B (a compound having 3 or more and less than 10 is denoted as B) | B (a compound having 3 or more and less than 10 is denoted as B) |  |  |  | 
8 | 11.6 | CCCN(C)C(=O)[C@@H]1CC(=O)N(C)[C@@H](COCC)C(=O)N[C@@H]([C@@H](C)CC)C(=O)N(C)CC(=O)N(C)[C@H]2C/C=C\CCN(C2=O)[C@@H](Cc2ccc(C(F)(F)F)cc2)C(=O)N(C)CC(=O)N[C@@H](CCc2ccc(C(F)(F)F)c(OC)c2)C(=O)N2C[C@H](OCC)C[C@H]2C(=O)NC2(CC(C)(C)C2)C(=O)N(C)[C@@H](C2CCCC2)C(=O)N1C [PP2012] |  |  | A (a compound having 10 or more and less than 20 is denoted as A) | AA (a compound having 20 or more is denoted as AA) |  | 
